{"source": "paper PMC3547157", "about": "(Journal of the American Chemical Society, 2012)", "origin": "cited, not measured here", "target": "T1, COX-2 enzyme (Homo sapiens, UniProt P35354)", "T1 sequence (P35354 18-604)": "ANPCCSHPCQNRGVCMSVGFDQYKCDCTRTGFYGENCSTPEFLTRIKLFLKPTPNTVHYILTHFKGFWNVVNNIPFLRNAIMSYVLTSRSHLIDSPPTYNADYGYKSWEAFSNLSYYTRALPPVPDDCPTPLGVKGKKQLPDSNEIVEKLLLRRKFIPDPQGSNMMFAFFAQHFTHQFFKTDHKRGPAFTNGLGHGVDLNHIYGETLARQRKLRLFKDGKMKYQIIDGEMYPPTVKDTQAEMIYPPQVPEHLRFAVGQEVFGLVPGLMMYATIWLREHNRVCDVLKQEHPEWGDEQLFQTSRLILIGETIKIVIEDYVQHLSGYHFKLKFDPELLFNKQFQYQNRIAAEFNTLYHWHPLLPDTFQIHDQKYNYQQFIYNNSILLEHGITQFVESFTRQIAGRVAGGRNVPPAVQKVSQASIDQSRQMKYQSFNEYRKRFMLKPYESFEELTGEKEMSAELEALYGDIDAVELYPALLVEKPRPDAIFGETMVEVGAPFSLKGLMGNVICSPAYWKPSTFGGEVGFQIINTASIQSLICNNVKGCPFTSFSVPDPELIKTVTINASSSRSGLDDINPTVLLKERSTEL", "settings": "read-out: reported IC50 of naproxen to COX-2; literature values"}
{"smiles": "COc1ccc2cc([C@H](C)C(=O)O)ccc2c1", "note": "[naproxen]", "values": [{"measurement": "IC50", "value": "2 to 28.4", "unit": "µM"}]}
